Results from patent US20200256880A1, “Neuronal Assay Method Involving Calcineurin” (The Broad Institute, Inc., priority 2017, published 2020).

Assays:
[1] = system: phosphorylated RII (pRII) peptide; experiment: Calcineurin phosphatase enzyme assay with pRII peptide; format: biochemical, human; conditions: recombinant CNAα/CNB1 holoenzyme, pRII substrate, in the presence of CaM
Description: To investigate whether phosphorylation of CNAα Ser469 modifies calcineurin phosphatase activity, a phosphomimetic mutant was generated by replacing S469 with E469 in purified, recombinant human calcineurin. The S469E mutant or wild type of CNAα was co-expressed with CNB1 subunit in E. coli and co-purified. Both mutant and wild type show similar expression level and purity. Their concentrations were quantified by OD280 and CaM titration.
Enzyme activity was then assessed. CN enzymatic parameters for wild-type and S469E mutant proteins were measured using phosphorylated RII (pRII) peptide in a buffer containing 50 mM HEPES (pH=7.0), 1 mM CaCl2, 1 mM MnCl2, 0.5 mM dithiothreitol (DTT), and 0.1 mg/ml bovine serum albumin (BSA). Phosphate product release was monitored at 620 nm on SpectraMax_i3x spectrophotometer (Molecular Devices) with a 96-well plate-based calcineurin phosphatase assay kit (Abcam). Briefly, CN (40 nM) and CM (200 nM) were pre-mixed in 2× assay buffer. The reaction was initiated by addition of 25 μl pRII substrate (in H2O) to equal volume of CN/CaM mixture. The final concentration of pRII used ranged from 12 μM to 750 μM. Reaction was stopped by green quench reagent after 20 minutes. Km was determined using nonlinear regression of the Michaelis-Menten equation.

[2] = system: phospho-S469 CNAα in rat hippocampal neurons; format: cell-based
[3] = system: S469 CNAα phosphorylation in rat hippocampal neurons; experiment: Pharmacological blockade of glutamate receptors and L-type Ca channels, with or without bicuculline; phospho-S469 CNAα at synapsin-marked synapses; format: cell-based; conditions: baseline and bicuculine-induced; localized to synapses marked by synapsin
Description: (A) Rat hippocampal neurons grown in 96-well plates were stimulated with various plasticity induction paradigms or modulators of neuronal activity levels, fixed and stained for phospho-S469 CNAα and MAP2, and imaged. (B) Quantification of phospho-S469 CNAα levels within MAP2-positive dendrites in wells shown in (A). (C) Quantification of total CNAα levels within MAP2-positive dendrites in wells shown in (A). (D) Rat hippocampal neurons were pretreated with vehicle, DNQX, nifedipine, […], or a combination of all three (with group listed in this order from left to right in panel (D)) prior and after treatment with bicuculline. Neurons were then fixed and stained for phospho-S469 CNAα and synapsin and imaged on a Phenix® (Perkin Elmer) imaging system, a high content imaging system. Shown is the phospho-S469 CNAα levels localized to synapses marked by synapsin. Bic=bicuculine. *≤0.05 compared to control sample, **<0.01, ***<0.001, and ****<0.0001 compared to control sample. For FIG. 7D, statistics were derived by comparing the pharmacological condition with the equivalent control condition, either vehicle or bicucculine treated.
Next, the dependency of S469 CNAα phosphorylation was assessed when neurons were treated by blockade of glutamate receptors and L-type Ca channels using pharmacological blockers. […]

Compound | levels of phospho-S469 CNAα within dendrites [2] | also measured
S469E: phosphomimetic mutant of recombinant human CNAα (S469 replaced with E469) co-expressed with CNB1 | – | Km [1]: 256 µM
CC(C)NCC(O)c1ccc(O)c(O)c1 (stereo not drawn) [isoproterenol] | significantly and robustly increased | –
CN[C@H](CC(=O)O)C(=O)O [NMDA, N-methyl-D-asparatate] | significantly and robustly increased | –
N[C@H](C(=O)O)c1cc(O)cc(O)c1 [DHPG, dihydroxypheylglycine] | significantly and robustly increased | –
NC(CCCP(=O)(O)O)C(=O)O (stereo not drawn) [AP5] | – | S469 CNAα phosphorylation [3]: most strongly reducing
NC1=N[C@H](O)[C@H]2[C@H]3O[C@]4(O)O[C@@H]([C@@H](O)[C@@]2(N1)[C@@H]4O)[C@]3(O)CO [TTX, tetrodotoxin] | decrease | –
